Data published in publication PMC7318243, “Computationally Empowered Workflow Identifies Novel Covalent Allosteric Binders for KRAS^G12C” (Chemmedchem, 2020).

Experiments:
[1] = biological target: T1, KRAS^WT (Homo sapiens, UniProt P01116); test: Biochemical assay: KRAS^WT activation by SOS1CAT (HTRF, fluorescent GTP loading); conditions: 180 min pre-incubation with KRAS before addition of SOS1
T1 construct: The proteins KRASWT (aa 1–169, wild type), SOS1CAT (aa 564–); made in house
Description: One of the most synthetically accessible compounds, 1,6‐naphthyridin‐5(6H)‐one (1), was prepared (Table 1; Scheme S1). Structurally close to 1, isoquinolin‐1(2H)‐one 2 derivatives were also considered for the exploration of structure‐activity relationships (SAR). To measure the proportion of inhibitor reacting with Cys12 of the KRAS^G12C mutant, the bound/unbound protein ratio was quantified by mass spectrometry (MS). Then, the inhibition potency of these compounds towards KRAS^G12C was evaluated in biochemical assays measuring the activation of GDP‐bound KRAS^G12C or KRAS^WT by SOS1.19 […]
3.3 Biochemical activity assays
Measurement of (i) KRASG12C activation by SOS1CAT and (ii) wild-type KRAS activation by SOS1CAT was performed following the previously described protocol, [19] with a pre-incubation time of the test compound with KRAS proteins extended to 180 min before addi tion of SOS1.
This assay quantifies SOS1 CAT mediated loading of KRAS G12C–GDP with a fluorescent GTP analogue. Detection of successful loading was achieved by measuring resonance energy transfer from anti-GST-terbium (FRET donor) bound to GST -KRASG12C to the loaded fluorescent GTP analogue (FRET acceptor). The fluorescent GTP analogue EDA –GTP–DY-647P1 [2'/3'-O-(2-aminoethyl-carbamoyl)guanosine-5'-triphosphate labelled with DY-647P1 (Dyomics GmbH, Germany)] was synthesized by Jena Bioscience (Germany) a nd supplied as a 1 mM aqueous solution. A KRASG12C working solution was prepared in assay buffer [10 mM HEPES pH 7.4 (AppliChem), 150 mM NaCl (Sigma), 5 mM MgCl2 (Sigma), 1 mM DTT (Thermo Fisher), 0.05% BSA Fraction V pH 7.0 (ICN Biomedicals), 0.0025% (v/v) Igepal (Sigma)] containing 100 nM GST-KRASG12C and 2 nM anti-GST-terbium (Cisbio, France). A SOS1 CAT working solution was prepared in an assay buffer containing 20 nM SOS1CAT and 200 nM EDA–GTP–DY-647P1. An inhibitor control solution was prepared in an assay buffer containing 200 nM EDA–GTP–DY-647P1 without […]
SOS1CAT. All steps of the assay were performed at 20 °C. A volume of 2.5 µL of the KRASG12C working solution was added to all wells of the test plate using a Multidrop dispenser (Thermo LabSystems). After 180 min, 2.5 µL of the SOS1CAT working solution was added to all wells, except for the inhibitor control solution wells. After 30 min incubation, HTRF was measured.
In the KRASWT activation by SOS1cat assay, human SOS1CAT mediated loading of GST-KRASWT– GDP was quantified with a fluorescent GTP analogue. The assay was performed as described above for the KRASG12C activation. […]
(§1) SYNAPT G2-S quadrupole time-of-flight mass spectrometer connected to a Waters nanoAcquity UPLC system. Samples were loaded on a 2.1 x 5 mm mass prep C4 guard column (Waters) and desalted with a short grad ient (3 min) of increasing concentrations of acetonitrile at a flow rate of 100 µL/min. Spectra were analyzed by using MassLynx v4.1 software and deconvoluted with the MaxEnt1 algorithm. Percent of conversion was determined by the ratio of signal intensiti es of apo-KRAS and KRAS + inhibitor.

[2] = biological target: T2, KRAS^G12C (Homo sapiens, UniProt P01116, C118S/C51S/C80L/G12C); test: Determination of kinact and KI by LC-MS occupancy over time; format: binding; conditions: for k inact (maximum potential rate of KRAS^G12C inactivation) / Ki: 10 µM KRAS^G12C, 10-100 µM inhibitor, 0-180 min; for Ki: read-out: K I (binding constant of the reversible binding event)
T2 construct: made in house
T2 sequence (P01116 1-169 isoform P01116-2 G12C/C51S/C80L/C118S): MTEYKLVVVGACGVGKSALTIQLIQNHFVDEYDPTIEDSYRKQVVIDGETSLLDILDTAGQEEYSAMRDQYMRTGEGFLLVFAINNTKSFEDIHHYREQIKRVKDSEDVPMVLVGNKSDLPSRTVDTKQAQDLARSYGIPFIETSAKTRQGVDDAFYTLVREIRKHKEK
Description: 3.4 Covalent binding assay by mass spectrometry
The percentage of covalent adduct formation at KRAS G12C was determined by intact mass determination. To this end, 25 µM recombinant KRAS mutant (G12C , C51S, C80L, C118S) was incubated with 25 µM compound (1% v/v DMSO final concentration) in 50 mM Tris, pH 8.0, 50 mM NaCl at room temperature for 2 h. Reaction mixture (20 µL) was acidified by addi tion of 4% v/v TFA (4 µL). LC-MS analysis was performed using a Waters SYNAPT G2 -S quadrupole time -of-flight mass spectrometer connected to a Waters nanoA CQUITY UPLC system. Samples were loaded onto a 2.1 × 5 mm MassPrep C4 guard column (Waters) and desalted with a short gradient (3 min) of increasing concentration of acetonitrile at a flow rate of 100 µL/min. Spectra were analyzed by using MassLynx v4.1 software and deconvoluted with the MaxEnt1 algorithm. Percent conversion was determined by the ratio of signal intensities of […] and KRASG12C + inhibitor. […]
3.6 Determination of k inact and KI
The percentage of covalent adduct formation at KRASG12C was determined for compounds 1, 2 and 13 by intact mass determination. To this end, 25 µM of the same recombinant KRAS mutant as for the covalent binding assay (G12C, C51S, C80L, C118S) were incubated with 25 µM of compound (1% v/v final DMSO concentration) in 50 mM Tris, pH8, 50 mM NaCl at room temperature for 2 h. The reaction was acidified by adding 4 µL of 4% v/v TFA to 20 µL reaction […]
as §1, with “Liquid chromatography-mass spectrometry (LC-MS) analysis was performed using a Waters SYNAPT” for “SYNAPT”
The kinact / KI ratio was determined by measuring the total occupancy (% conversion) over time at different inhibitor concentrations. In detail, 10 µM KRASG12C were incubated in the same reaction buffer as above with 10 µM, 25 µM, 50 µM or 100 µM of inhibitor at different reaction times (0, 2, 20, 60 and 180 min), the reaction was quenched by adding 2 µL of 4% v/v TFA to 10 µL reaction volume and subsequently measured by LC -MS as described above. The observed occupancy percentage over time at a given inhibitor concentration was fit to the following equation using […]
% conversion = vi [1 − exp(−k ∗ t)]
The obtained kobs values were then plotted as a function of inhibitor concentration and fit to the […]
to yield the kinact and KI.[26]

T1 sequence (P01116 1-169 isoform P01116-2): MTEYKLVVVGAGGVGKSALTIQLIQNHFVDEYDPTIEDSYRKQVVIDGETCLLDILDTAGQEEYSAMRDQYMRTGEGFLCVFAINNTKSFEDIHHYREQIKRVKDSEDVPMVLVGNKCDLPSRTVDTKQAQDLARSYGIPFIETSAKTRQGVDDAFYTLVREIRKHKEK

Row | IC50 [1] [µM] | k inact/K I [2] [M⁻¹ s⁻¹] | k inact (maximum potential rate of KRAS^G12C inactivation) [2] [s⁻¹] | Ki [2] [µM] | Structure (SMILES)
1 | > 20 | 26.72 | 0.00105 | 39.3 | C=CC(=O)N1CCC(c2cc3ncc(-c4c(O)cccc4F)cc3c(=O)[nH]2)C1 (stereo not drawn) [Compound 1, 3-(2-Fluoro-6-hydroxyphenyl)-7-[1-(prop-2-enoyl)pyrrolidin-3-yl]-1,6-naphthyridin-5(6H)-one]
2 | > 20 | 55.05 | 0.00024 | 4.4 | C=CC(=O)N1CCC(c2cc3ccc(-c4c(O)cccc4F)cc3c(=O)[nH]2)C1 (stereo not drawn) [Compound 2, 7-(2-Fluoro-6-hydroxyphenyl)-3-[1-(prop-2-enoyl)pyrrolidin-3-yl]isoquinolin-1(2H)-one]
3 | > 20 | 49.38 | 0.00159 | 32.2 | C=CC(=O)N1CCC(c2cc3cnc(-c4c(O)cccc4F)cc3c(=O)[nH]2)C1 (stereo not drawn) [Compound 13, 7-(2-Fluoro-6-hydroxyphenyl)-3-[1-(prop-2-enoyl)pyrrolidin-3-yl]-2,6-naphthyridin-1(2H)-one]
